Where a SMILES comes first, the peptide text is derived from it.
Key:
HIV-1IIIB = test: HIV-1 antiviral assay (CPE reduction, MTS); format: cell-based; conditions: peptide 10 micrograms per ml, 6 days post-infection
[1] = system: hepatitis B virus (HBV) ayw strain; test: HBV replication assay in HepG2-2.2.15 cells (TaqMan PCR of secreted HBV DNA); format: cell-based; conditions: test peptide 10 micrograms per ml, six days, HBV DNA by TaqMan PCR
[2] = Cytotoxicity in HBV assay (dye uptake cell viability); format: cell-based; conditions: human, HepG2-2.2.15 cells, test peptide 10 micrograms per ml
HCMV strain AD169 = test: HCMV plaque reduction assay in MRC-5 cells; format: cell-based; conditions: HCMV AD169 in MRC-5 cells; peptide 10 micrograms per ml; 7-10 days
Excerpt: Ganciclovir was used as positive control.

MRSA = test: Methicillin Resistant Staphylococcus Aureus (MRSA) assay; format: cell-based; conditions: MRSA growth; peptide 10 micrograms per ml; read visually
Pseudomonas aeruginosa = Pseudomonas aeruginosa assay; format: cell-based; conditions: Pseudomonas aeruginosa growth; peptide 10 micrograms per ml; read visually
Streptococcus pneumoniae = Streptococcus pneumoniae assay; format: cell-based; conditions: Streptococcus pneumoniae growth; peptide 10 micrograms per ml; read visually
A549 cells = test: Propidium iodide cell cycle assay; format: cell-based, human; conditions: test peptide 10 micrograms per ml, 24 hours, FACS
Excerpt: Human A549 cells (carcinomic human alveolar basal epithelial cells) were utilized in the experiments employing the Propidium iodide cell cycle assay. The eukaryotic cell cycle is a series of events that take place in a cell leading to its replication. The regulation of the cell cycle involves steps crucial to the cell, including detecting and repairing genetic damage, and provision of various checks to prevent uncontrolled cell division. The molecular events that control the cell cycle are ordered and directional; that is, each process occurs in a sequential fashion. The cell cycle consists of four distinct phases: G1 phase, S phase, G2 phase (collectively known as interphase) and M phase. M phase is itself composed of two tightly coupled processes: mitosis, in which the cell's chromosomes are divided between the two daughter cells, and cytokinesis, in which the cell's cytoplasm divides forming distinct cells. Activation of each phase is dependent on the proper progression and completion of the previous one. Cells that have temporarily or reversibly stopped dividing are said to have entered a state of quiescence called Go phase. The relatively brief M phase consists of nuclear division and cytoplasmic division. The first phase within interphase, from the end of the previous M phase till the beginning of DNA synthesis is called G1 (G indicating gap or growth). During this phase the biosynthetic activities of the cell resume at a high rate. This phase is marked by synthesis of various enzymes that are required in S phase, mainly those needed for DNA replication. The ensuing S phase starts when DNA synthesis commences; when it is complete, all of the chromosomes have been replicated. The cell then enters the G2 phase, which lasts until the cell enters mitosis. Significant protein synthesis occurs during this phase, mainly involving the production of microtubules, which are required during the process of mitosis. […]
Propidium iodide is an intercalating agent and a fluorescent molecule that can be used to stain DNA. […] After incubation for 40 min at 37° C., cells were analyzed in the FACS.

[3] = system: Human Peripheral Blood Mononuclear Cells (PBMC); test: T cell proliferation assay (PHA, 3H-thymidine); format: cell-based; conditions: test peptide 10 micrograms per ml
Experimental: (§1) Human Peripheral Blood Mononuclear Cells (PBMC) were obtained from normal human donors. The T cell proliferation was induced by stimulation of the cells with the T cell mitogen phytohemagglutinin (PHA), either in the absence (positive proliferation control), or in the presence of test peptide—10 micrograms per ml—to examine their effects on the T cell proliferating response. 10^5/well PBMC were plated in 96-well microtiter plates and assayed in duplicate with the peptide. Cell cultures were incubated at 37° C. for 3 days in a 5% CO2 incubator and were thereafter pulsed with 1 microCi/well ^3H-thymidine for additional 12 hours of culture. At the end of incubation time, the plates were harvested and the cells counted by liquid scintillation for the incorporation of ^3H-thymidine as a measure of T cell proliferation.

[4] = system: Human Peripheral Blood Mononuclear Cells (PBMC); test: B cell proliferation assay (SAC plus Interleukin-2, 3H-thymidine); format: cell-based; conditions: test peptide 10 micrograms per ml
Experimental: as §1, with “The B” for “The T”, “the B” for “the T”, “mitogen Staphylococcus aureus Cowans I (SAC) plus Interleukin-2,” for “mitogen phytohemagglutinin (PHA),”, “cell” for “cell proliferating”, “of B” for “of T”

RAW 264.7 cells = test: Phagocytosis assay (Fluorescein-labeled Escherichia coli); format: cell-based, mouse; conditions: test peptide 10 micrograms per ml, flow cytometry
[5] = system: Tumor Necrosis Factor-α (TNF-α); test: Th1/Th2 cytokine profiling assay: TNF-α; format: cell-based, Balb/c mice; conditions: Ovalbumin-restimulated spleen cells; test peptide 10 micrograms per ml; 72 hours
Excerpt: (§2) The Balb/c mice (originated in 1923, it is a popular strain and is used in many different research disciplines. Also classified as an inbred from the production of 20 or more successive brother-sister matings, the Balb/c mouse is albino and small in size) were immunized on Days 1, 15, and 29 with Ovalbumin (Ovalbumin is the main protein found in egg white, commonly used to stimulate an immunological reaction in test animals) in PBS (5 micrograms/injection). On day 50, spleens of the mice were harvested (3 weeks after last boost with Ovalbumin). Cells were cultured (2×10^5/well in triplicate) and incubated with culture medium or test peptide—10 micrograms per ml—for 30 min. Thereafter, additional Ovalbumin was added to the cells at 10 micrograms/ml for in vitro restimulation of the cells. 72 hours later, cell supernatants were harvested and assayed using the Becton Dickinson Mouse Th1/Th2 Cytokine CBA Kit. This kit can be used to measure Interleukin-2 (IL-2), Interleukin-4 (IL-4), Interleukin-5 (IL-5), Interferon-γ (IFN-γ), and Tumor Necrosis Factor-α (TNF-α) protein levels in a single sample. The kit performance has been optimized for analysis of physiologically relevant concentrations ([…] levels) of specific cytokine proteins in tissue culture supernatants and serum samples.

Interferon-γ (IFN-γ) = test: Th1/Th2 cytokine profiling assay: IFN-γ; format: cell-based, Balb/c mice; conditions: Ovalbumin-restimulated spleen cells; test peptide 10 micrograms per ml; 72 hours
Excerpt: as §2

Interleukin-2 (IL-2) = test: Th1/Th2 cytokine profiling assay: IL-2; format: cell-based, Balb/c mice; conditions: Ovalbumin-restimulated spleen cells; test peptide 10 micrograms per ml; 72 hours
Excerpt: as §2

Interleukin-4 (IL-4) = test: Th1/Th2 cytokine profiling assay: IL-4; format: cell-based, Balb/c mice; conditions: Ovalbumin-restimulated spleen cells; test peptide 10 micrograms per ml; 72 hours
Excerpt: as §2

Interleukin-5 (IL-5) = test: Th1/Th2 cytokine profiling assay: IL-5; format: cell-based, Balb/c mice; conditions: Ovalbumin-restimulated spleen cells; test peptide 10 micrograms per ml; 72 hours
Excerpt: as §2

TNF alpha = TNF alpha production assay (LPS-stimulated macrophages, ELISA); format: cell-based; conditions: human macrophages, test peptide 10 micrograms per ml, lipopolysaccharide 200 ng/ml, overnight
Experimental: Human Peripheral Blood Mononuclear Cells (PBMC) were obtained from normal human donors. The macrophages were prepared by adherence of PBMC to the plastic wells of the plates. After 8 days in culture in the presence of recombinant human macrophage-colony stimulating factor at 2 ng/ml, differentiated macrophages were preincubated with test peptide—10 micrograms per ml—for 30 min, followed by in-well stimulation by the addition of lipopolysaccharide at a final concentration of 200 ng/ml. Not stimulated macrophages served as negative background control.
After overnight incubation, supernatants from the control and LPS-stimulated cultures were harvested and assayed for TNF alpha production employing a TNF alpha specific ELISA.

[6] = system: Primary Human endothelial cells (HUVEC); test: Endothelial cell migration assay; format: cell-based; conditions: test peptide 10 micrograms per ml, 22 hours
Experimental: Endothelial cell migration is a prerequisite for the process of neo-vascularization or angiogenesis which is crucial for on-site recruitment of blood vessel formation. Primary Human endothelial cells (HUVEC) were seeded in insert chambers with 3 micrometer pore size of multi-transwell plate for 6 hours at 37° C. in Endothelial Cell Basal Medium (EBM) supplemented with 0.1% bovine serum albumin. Thereafter, designated concentration of test peptide—10 micrograms per ml—was added in duplicate wells. The endothelia were allowed to migrate for 22 hours at 37° C., then, migrated cells were fixed and stained with Hoechst 33342 dye. Images of 3 fields per insert were taken and the number of migrated cells per field were quantified using the ImageProPlus software. Data were analyzed for the average number of the migrated cells and standard deviation of six data points for each treatment condition. Active test peptide against HUVEC migration was determined based on 50% inhibition of migrated cells as compared with the control. Statistic p values were computed using the Student's t-test.

HUVEC = test: Endothelial tube formation assay; format: cell-based, human; conditions: test peptide 10 micrograms per ml, 20 hours
Experimental: The endothelial tube formation assay is based on the ability of endothelial cells to form three-dimensional capillary-like tubular structures when cultured on a gel of basement membrane extract. The endothelial tube formation assay represents a powerful model for studying inhibition and induction of angiogenesis. Pre-labeled HUVEC with Calcein AM were seeded in a 96-well culture plate coated with extracellular metrix (Chemicon international Cat. ECM625) and treated with test peptide—10 micrograms per ml—in full growth medium. […] control was vehicle only. The endothelial cells were allowed to form tubes for 20 hours and were then examined under an inverted fluorescent microscope. Duplicate wells for each treatment were photographed and quantitatively analyzed for an average tubule length using image analysis software ImageProPlus. Raw data were expressed as average tubule lengths in pixels ±standard deviation. Statistic p values were computed using the Student's t-test.

[7] = Cytotoxicity in HIV-1 assay (MTS cell viability); conditions: human, CEM-SS cells
[8] = Cytotoxicity in HCMV assay (CellTiter 96 cell viability); conditions: human, MRC-5 cells (embryonal lung fibroblasts)

Cc1cn([C@H]2C[C@H](N=[N+]=[N-])[C@@H](CO)O2)c(=O)[nH]c1=O [AZT]
% CPE reduction in HIV-1 infected CEM-SS cells (HIV-1IIIB): 99%

CC(C)(C)NC(=O)[C@@H]1CN(Cc2cccnc2)CCN1C[C@@H](O)C[C@@H](Cc1ccccc1)C(=O)N[C@H]1c2ccccc2C[C@H]1O [Indinavir]
% CPE reduction in HIV-1 infected CEM-SS cells (HIV-1IIIB): 100%

CC(C)C[C@H](NC(=O)CNC(=O)[C@H](CCC(=O)O)NC(=O)CNC(=O)[C@H](C)N)C(=O)N[C@@H](CC(N)=O)C(=O)N[C@@H](CO)C(=O)N[C@@H](CCC(N)=O)C(=O)N[C@@H](Cc1ccccc1)C(=O)N[C@@H](Cc1c[nH]c2ccccc12)C(=O)N[C@@H](CO)C(=O)N[C@@H](CC(C)C)C(=O)N[C@@H](C)C(=O)N[C@@H](C)C(=O)N1CCC[C@H]1C(=O)N[C@@H](CCC(N)=O)C(=O)N[C@@H](CCCNC(=N)N)C(=O)N[C@@H](Cc1ccccc1)C(N)=O [Neuropeptide AF, Ala-Gly-Glu-Gly-Leu-Asn-Ser-Gln-Phe-Trp-Ser-Leu-Ala-Ala-Pro-Gln-Arg-Phe-NH2] (H-AGEGLNSQFWSLAAPQRF-NH2)
% CPE reduction in HIV-1 infected CEM-SS cells (HIV-1IIIB): 0.0%
% inhibition of HBV replication in HEP G2 cells [1]: 42.6%
viability at 144 h, 10 micrograms per ml [2]: 100%
% plaque reduction (HCMV strain AD169): 6.9%
% inhibition (MRSA): 0.0%
% inhibition (Pseudomonas aeruginosa): 0.0%
% inhibition (Streptococcus pneumoniae): 0.0%
Cell cycle analysis G0/G1 (A549 cells): 55.5
Cell cycle analysis G2/M (A549 cells): 10.0
Cell cycle analysis S (A549 cells): 34.5
% of PHA induced control [3]: 103.8%
% of SAC/IL2 induced control [4]: 105.7%
% of control phagocytosis (RAW 264.7 cells): 105.9%
TNF-a spleen cells; TH1 response (% of control) [5]: 92.1 % of control
IFNγ spleen cells; TH1 response (% of control) (Interferon-γ (IFN-γ)): 84.8 % of control
IL-2 spleen cells (% of control) (Interleukin-2 (IL-2)): 0.0 % of control
IL-4 spleen cells; TH2 response (% of control) (Interleukin-4 (IL-4)): 0.0 % of control
IL-5 spleen cells; TH2 response (% of control) (Interleukin-5 (IL-5)): 52.2 % of control
% of LPS induction (TNF alpha): 104.7%
% inhibition of migration [6]: −4%
% inhibition of tube formation (HUVEC): −9%
viability at 10 micrograms per ml [7]: 81.6%
viability at 144 h [8]: 100%

— patent US20100204130A1, “USE OF HUMAN NEUROPEPTIDE AS A THERAPEUTIC AGENT” (priority 2007, published 2010)
